Experimental data: US9376420B2 (YUHAN CORPORATION, priority 2012, dated 2016)

Target: T1, human LXRβ (Homo sapiens, UniProt P55055)
T1 construct: expressed in transfected cells; host or cells: HEK293 cells (ATCC CRL-1573), transient transfection with pFA-hLXRβ/GAL4 and pUAS
T1 sequence (P55055 222-460 limits assumed): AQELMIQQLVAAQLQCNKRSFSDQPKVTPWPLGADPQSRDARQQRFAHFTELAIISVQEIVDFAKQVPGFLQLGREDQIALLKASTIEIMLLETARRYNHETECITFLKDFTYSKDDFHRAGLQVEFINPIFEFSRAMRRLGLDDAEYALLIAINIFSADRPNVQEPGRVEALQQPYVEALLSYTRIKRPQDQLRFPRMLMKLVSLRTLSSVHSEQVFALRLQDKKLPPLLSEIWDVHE
Experiment: Assay for Transcriptional Activity of LXRβ (GAL4-hLXRβ LBD luciferase reporter, transient transfection)
Type: cell-based
Details: HEK293 cells transfected with pFA-hLXRβ/GAL4 and pUAS, 24 hours; for Emax: fold value in comparison with the control (DMSO-treated group); for EC50: increase of transcriptional activity of LXRβ, average of three independent tests
Excerpt: The ligand-binding domain (LBD) cDNA of human LXRβ was inserted into an expression vector (pFA, Stratagene, USA) site adjacent to the yeast GAL4 transcription factor DNA binding domain to prepare an expression construct (pFA-hLXRβ/GAL4) (Willey et al., Genes & Development 9 1033-1045 (1995). The GAL4-responsive luciferase reporter plasmid, i.e., pUAS (Stratagene, USA), contained five copies of the GAL4 response element placed adjacent to the promoter and the luciferase reporter gene. The pFA-hLXRβ/GAL4 and pUAS were introduced into mammalian cells through transient transfection, followed by measuring the transcriptional activity of LXRβ.
HEK293 cells (human kidney cells, sATCC, CRL-1573) were incubated at a T-75 flask containing a DMEM supplemented with 10% fetal bovine serum (FBS) in a 37° C., until they reach about 70˜80% confluency. The culture media containing the cells was added to each well of a 96-well plate in a density of 5×10^4 cells per well. The pFA-hLXRβ/GAL4 and pUAS was transfected to the cells using a cationic-lipid transfection reagent (Lipofectamine™, Invitrogen), through culturing at 37° C. for 3 hours for transient transfection according to the manufacturer's instruction. The test compounds were dissolved in dimethyl sulfoxide (DMSO) in the concentrations of 50, 30, 10, 3, 1, 0.3, 0.1, 0.03, and 0.01 μM and then cells were treated with the prepared compound-containing solution (100 μl). The cells were incubated at 37° C. for 24 hours. After removal of the medium from each well, the lysis buffer (25 mM Tricine pH7.8, 2 mM DTT, 2 mM EGTA, 10% glycerol, 1% Triton X-100) was added with the amount of 20 μl per each well, and the plate was stirred at room temperature for 15 minutes. The luciferase reagent (prepared by adding 10 ml of the luciferase buffer (Promega) to 1 vial of the luciferase substrate (Promega)) was added to each well with the amount of 100 μl per well, followed by assaying with a luminometer according to the manufacturer's instruction.
The dose-response curve for calculating the EC50 values of the test compounds on the increase of transcriptional activity of LXRβ was prepared using the known LXR agonist (i.e., N-(2,2,2-trifluoro-ethyl)-N-[4-(2,2,2-trifluoro-1-hydroxy-1-trifluoromethyl-ethyl)-phenyl]-benzenesulfonamide) as a positive control and the vehicle (DMSO) as a negative control. The dose-response curve was produced from the 9-point curve having different concentrations at a 1/2 log unit. The EC50 value of a test compound, which is defined as a concentration for initiating the reaction corresponding to the half value between the Top value (i.e., the maximum value) and the Bottom value (baseline), was calculated according to the following equation. Y=Bottom+(Top-Bottom)/(1+10^((log EC50-X)*Hill Slope)).
In the above equation, Y is the observed value; X is the log concentration; Hill Slope is the slope of the curve; and Top and Bottom are the maximum value of test compound and the baseline value, respectively.
The following tables 1 and 2 show the EC50 values of the test compounds measured as in the above. In the tables 1 and 2, each EC50 value represents an average value obtained from three independent tests.

Emax	EC50	Compound
62 fold	302 nM	OC(C1=NN(c2ccccc2Cl)C(c2ccc(-c3cncnc3)cc2)C1)(C(F)(F)F)C(F)(F)F (stereo not shown) [Example 258, 1-(2-chloro-phenyl)-5-(4-pyrimidin-5-yl-phenyl)-3-[di-(trifluoromethyl)-hydroxy-methyl]-4,5-dihydro-1H-pyrazole]
43 fold	2480 nM	OC(C1=NN(c2ccccc2Cl)C(c2ccc(-c3cccc(OC(F)(F)F)c3)cc2)C1)(C(F)(F)F)C(F)(F)F (stereo not shown) [Example 248, 1-(2-chloro-phenyl)-5-[3′-(trifluoromethoxy)-biphenyl-4-yl]-3-[di-(trifluoromethyl)-hydroxy-methyl]-4,5-dihydro-1H-pyrazole]
90 fold	1110 nM	CC(C)(C)OC(=O)N1CC=C(c2ccc(C3CC(C(O)(C(F)(F)F)C(F)(F)F)=NN3c3ccccc3Cl)s2)CC1 (stereo not shown) [Example 416, 1-(2-chloro-phenyl)-5-[5-(1-BOC-1,2,3,6-tetrahydropyridin-4-yl)-thiophen-2-yl]-3-[di-(trifluoromethyl)-hydroxy-methyl]-4,5-dihydro-1H-pyrazole]
34 fold	10300 nM	Fc1ccc(N2N=C(C(F)(F)C(F)(F)F)CC2c2ccc(F)c(-c3ccc(Cl)nc3)c2)c(F)c1 (stereo not shown) [Example 130, 1-(2,4-difluoro-phenyl)-5-[4-fluoro-3-(6-chloro-pyridin-3-yl)-phenyl]-3-pentafluoroethyl-4,5-dihydro-1H-pyrazole]
16 fold	6140 nM	CS(=O)(=O)c1cncc(-c2cccc(N3N=C(C(F)(F)C(F)(F)F)CC3c3ccc(F)cc3F)c2)c1 (stereo not shown) [Example 207, 5-(2,4-difluoro-phenyl)-1-[3-(5-methanesulfonyl-pyridin-3-yl)-phenyl]-3-pentafluoroethyl-4,5-dihydro-1H-pyrazole]
73 fold	62 nM	CN(CCCS(=O)(=O)c1cccc(-c2ccc(C3CC(C(O)(C(F)(F)F)C(F)(F)F)=NN3c3ccccc3Cl)cc2)c1)C(=O)OC(C)(C)C (stereo not shown) [Example 285, 5-{3′-[3-(N-BOC-N-methyl-amino)-propane-1-sulfonyl]-biphenyl-4-yl}-1-(2-chloro-phenyl)-3-[di-(trifluoromethyl)-hydroxy-methyl]-4,5-dihydro-1H-pyrazole]
61 fold	746 nM	CS(=O)(=O)c1ccc(-c2cccc(C3CC(C(F)(F)C(F)(F)F)=NN3c3ccc(Cl)cc3F)c2)cc1 (stereo not shown) [Example 53, 1-(4-chloro-2-fluoro-phenyl)-5-(4′-methanesulfonyl-biphenyl-3-yl)-3-pentafluoroethyl-4,5-dihydro-1H-pyrazole]
47 fold	1870 nM	COc1ccc(-c2ccc(C3CC(C(O)(C(F)(F)F)C(F)(F)F)=NN3c3ccccc3Cl)cc2)cn1 (stereo not shown) [Example 260, 1-(2-chloro-phenyl)-5-[4-(6-methoxy-pyridin-3-yl)-phenyl]-3-[di-(trifluoromethyl)-hydroxy-methyl]-4,5-dihydro-1H-pyrazole]
51 fold	270 nM	CN(CCO)S(=O)(=O)c1cccc(-c2ccc(C3CC(C(O)(C(F)(F)F)C(F)(F)F)=NN3c3ccccc3Cl)cc2)c1 (stereo not shown) [Example 283, 1-(2-chloro-phenyl)-5-{3′-[(2-hydroxy-ethyl)-methyl-sulfamoyl]-biphenyl-4-yl}-3-[di-(trifluoromethyl)-hydroxy-methyl]-4,5-dihydro-1H-pyrazole]
102 fold	2490 nM	CSc1ccc(-c2ccnc(C3CC(C(F)(F)C(F)(F)F)=NN3c3ccc(F)cc3F)c2)cc1 (stereo not shown) [Example 173, 1-(2,4-difluoro-phenyl)-5-[4-(4-methylsulfanyl-phenyl)-pyridin-2-yl]-3-pentafluoroethyl-4,5-dihydro-1H-pyrazole]
27 fold	47 nM	CS(=O)(=O)c1ccc(-c2ccc(C3CC(C(O)(C(F)(F)F)C(F)(F)F)=NN3c3ccc(F)cc3F)cc2)cc1F (stereo not shown) [Example 387, 1-(2,4-difluoro-phenyl)-5-(3′-fluoro-4′-methanesulfonyl-biphenyl-4-yl)-3-[di-(trifluoromethyl)-hydroxy-methyl]-4,5-dihydro-1H-pyrazole]
45 fold	849 nM	CC(C)CS(=O)(=O)N1CC=C(c2ccc(C3CC(C(O)(C(F)(F)F)C(F)(F)F)=NN3c3ccccc3Cl)cc2)CC1 (stereo not shown) [Example 302, 1-(2-chloro-phenyl)-5-{4-[1-(2-methyl-propane-1-sulfonyl)-1,2,3,6-tetrahydropyridin-4-yl]-phenyl}-3-[di-(trifluoromethyl)-hydroxy-methyl]-4,5-dihydro-1H-pyrazole]
92 fold	6860 nM	OC(C1=NN(c2ccccc2Cl)C(c2ccc(-c3cc4ccccc4o3)cc2)C1)(C(F)(F)F)C(F)(F)F (stereo not shown) [Example 262, 5-(4-benzofuran-2-yl-phenyl)-1-(2-chloro-phenyl)-3-[di-(trifluoromethyl)-hydroxy-methyl]-4,5-dihydro-1H-pyrazole]
96 fold	397 nM	CS(=O)(=O)c1cccc(-c2cccc(C3CC(C(F)(F)C(F)(F)F)=NN3c3ccccc3Cl)n2)c1 (stereo not shown) [Example 157, 1-(2-chloro-phenyl)-5-[2-(3-methanesulfonyl-phenyl)-pyridin-6-yl]-3-pentafluoroethyl-4,5-dihydro-1H-pyrazole]
112 fold	617 nM	CSc1ccc(-c2ccc(C3CC(C(O)(C(F)(F)F)C(F)(F)F)=NN3c3ccccc3Cl)cc2)cc1 (stereo not shown) [Example 243, 1-(2-chloro-phenyl)-5-[4′-(methylsulfanyl)-biphenyl-4-yl]-3-[di-(trifluoromethyl)-hydroxy-methyl]-4,5-dihydro-1H-pyrazole]
97 fold	239 nM	Cc1ccc(-c2ccc(C3CC(C(O)(C(F)(F)F)C(F)(F)F)=NN3c3ccccc3Cl)cc2)c(F)c1 (stereo not shown) [Example 265, 1-(2-chloro-phenyl)-5-(2′-fluoro-4′-methyl-biphenyl-4-yl)-3-[di-(trifluoromethyl)-hydroxy-methyl]-4,5-dihydro-1H-pyrazole]
73 fold	181 nM	CS(=O)(=O)c1ccc(-c2ccc(F)c(C3CC(C(F)(F)C(F)(F)F)=NN3c3ccc(F)cc3F)c2)cn1 (stereo not shown) [Example 142, 1-(2,4-difluoro-phenyl)-5-[6-fluoro-3-(6-methanesulfonyl-pyridin-3-yl)-phenyl]-3-pentafluoroethyl-4,5-dihydro-1H-pyrazole]
72 fold	1270 nM	OC(C1=NN(c2ccccc2Cl)C(c2ccc(-c3cc4ccccc4s3)cc2)C1)(C(F)(F)F)C(F)(F)F (stereo not shown) [Example 263, 5-(4-benzo[b]thiophen-2-yl-phenyl)-1-(2-chloro-phenyl)-3-[di-(trifluoromethyl)-hydroxy-methyl]-4,5-dihydro-1H-pyrazole]
78 fold	2220 nM	COc1ccc(-c2cccc(C3CC(C(F)(F)C(F)(F)F)=NN3c3ccc(F)cc3F)c2)cn1 (stereo not shown) [Example 56, 1-(2,4-difluoro-phenyl)-5-[3-(6-methoxy-pyridin-3-yl)-phenyl]-3-pentafluoroethyl-4,5-dihydro-1H-pyrazole]
35 fold	745 nM	COc1ncc(-c2ccc(C3CC(C(O)(C(F)(F)F)C(F)(F)F)=NN3c3ccc(F)cc3F)cc2)cc1C=O (stereo not shown) [Example 379, 1-(2,4-difluoro-phenyl)-5-[4-(5-formyl-6-methoxy-pyridin-3-yl)-phenyl)-3-[di-(trifluoromethyl)-hydroxy-methyl]-4,5-dihydro-1H-pyrazole]
